Results as given in patent US20060099161A1, “Skin preparations for external use” (priority 2002, published 2006).

Columns and labels:
[1] = Visual evaluation of discoloration of powder lotion-type antiperspirant lotions; format: physicochemical
Procedure: Recipes shown in Table 1-1 and Table 1-2 were used to prepare powder lotion-type antiperspirant lotions and the degree of discoloration was evaluated visually. For Comparative examples, a recipe containing no trisodium ethylenediaminehydroxyethyl triacetate and a recipe containing a chelating agent EDTA-3Na.2H2O instead of trisodium ethylenediaminehydroxyethyl triacetate were investigated. The degree of discoloration was evaluated by giving ◯ to those that are within the acceptable range for skin treatment composition, and × to those that are outside of this range.

[2] = Staining of clothing after application, sunlight exposure and washing (visual observation); format: physicochemical
Procedure: Recipes shown in Table 3-1 and Table 3-2 were used to prepare powder lotion-type antiperspirant lotions and a prescribed amount (4 micrograms/cm^2) is applied on clothing. The clothing was exposed to sunlight (10 minutes) and washed with common laundry detergent in a washing machine; the degree of staining was then evaluated by visual observation. For Comparative examples, recipes not containing polyoxyethylene polyoxypropylene 2-decyltetradecyl ether (20-28 E.O.) (10-16 P.O.) and recipes containing polyoxyethylene (E.O. 60) were investigated. The degree of staining was evaluated by giving ◯ to those that are within the acceptable range for skin treatment compositions, and × to those that are outside of this range.

Row | Compound | anti-discoloration effect of the ingredient in skin treatment compositions containing anti-bacterial zeolite [1] | anti-staining effect of the ingredient in skin treatment compositions containing anti-bacterial zeolite [2]
1 | O=C([O-])CN(CCN(CC(=O)[O-])CC(=O)O)CC(=O)[O-].[Na+].[Na+].[Na+] [EDTA-3Na] | do not have the anti-discoloration effect | 
2 | polyoxyethylene polyoxypropylene 2-decyltetradecyl ether (20-28 E.O.) (10-16 P.O.) |  | acts as an anti-staining agent
3 | polyoxyethylene (E.O. 60) hydrogenated castor oil |  | do not have an anti-staining effect
4 | O=C([O-])CN(CCO)CCN(CC(=O)[O-])CC(=O)[O-].[Na+].[Na+].[Na+] [trisalt ethylenediaminehydroxyethyl triacetate] | acts as an anti-discoloration agent | 
